Read-outs that look alike come from different tables or passages of the source. Marks after values point to notes of the source that are not given here.
How the values were obtained:
[1] = type: physicochemical
Description: Therefore, providing a curcuminoid-to-antioxidant ratio of about 10:1 or higher should be sufficient to prevent hydrolysis during absorption, and enhance bioavailability. […] Thus, additional antioxidant need not add prohibitively to the bulk of a formulation.

IL-1β = assay: Inhibition of pro-inflammatory IL-1β in brain after curcumin administration; type: in vivo; conditions: mice, plasma levels 0.25-0.5 micromolar
[2] = system: active c-jun kinase (p)JNK; assay: Inhibition of active c-jun kinase in brain after curcumin administration; type: in vivo; conditions: mice, plasma levels 0.25-0.5 micromolar
[3] = Plasma levels after chronic Curc or TC administration in diet (500 ppm chow, 4 months); type: in vivo, APPsw mice; conditions: for Plasma (μM) / concentration at 4 months: APPsw mice, 500 mg/kg chow (2.5 mg/day), 4 months; for concentration at 4 months: mouse, plasma, oral
iNOS = assay: Inhibition of iNOS in brain after curcumin administration; type: in vivo; conditions: mice, plasma levels 0.25-0.5 micromolar
[4] = Conversion of curcumin to tetrahydrocurcumin in plasma; type: in vivo
amyloid accumulation = assay: Amyloid accumulation in vivo in APP Tg mice
in vivo = conditions: mouse
[5] = 4 hr after administration

Q: Which results are given for O=C1O[C@H]([C@@H](O)CO)C(O)=C1O [ascorbic acid]?
A: retarding curcumin hydrolysis ([1]; 25 micromolar curcumin, PBS pH 7.4, absorbance at 426 nm (FIG. 2)): very effective; retarding hydrolysis of curcumin ([1]; curcumin-to-ascorbic acid ratio of 1:1 or 2:1, absorbance at 450 and 405 nm (FIGS. 3 and 4)): very effective; retarding hydrolysis of curcumin ([1]; curcumin-to-ascorbic acid ratios higher than 2:1 (FIGS. 3 and 4)): somewhat diminished effectiveness

Q: Which “inhibition of pro-inflammatory IL-1β” value (IL-1β) does the source give for COc1cc(/C=C/C(=O)CC(=O)/C=C/c2ccc(O)c(OC)c2)ccc1O [Curc, curcumin] here?
A: The value was about 50%.

Q: What about the “inhibition of active c-jun kinase (p)JNK” value [2] of the same molecule?
A: Its value is about 50%.

Q: And the “Plasma (μM)” value [3]?
A: The value was “(0.095 μM)”.

Q: What about the concentration at 4 months [3] of the same molecule?
A: The concentration at 4 months was 35 ± 14 ng/mL.

Q: What about the “stability in aqueous solution” value [1] of the same molecule?
A: Its value is “unstable in aqueous solutions above pH 7.0”.

Q: And the “inhibition of iNOS” value (iNOS)?
A: The value was about 50%.

Q: What about the “Brain (μg/10 mg protein)” value (mouse, in vivo, ip, 4 hr) of the same molecule?
A: Its value is 0.074 ± 0.003^b μg/10 mg protein.

Q: What about the “curcuminoids in plasma naturally converted to tetrahydrocurcumin” value [4] of the same molecule?
A: Its value is 25%.

Q: And the amyloid accumulation (amyloid accumulation)?
A: Its amyloid accumulation is “effectively reduces”.

Q: What about the concentration at 4 hr (in vivo) of the same molecule?
A: Its concentration at 4 hr is 250 to 500 nM.

Q: Which “Plasma (μM)” value ([5]; i.m., dose 73.5 μg) does the source give for COc1cc(CCC(=O)CC(=O)CCc2ccc(O)c(OC)c2)ccc1O [TC, tetrahydrocurcumin] here?
A: The value was “(2.639 μM)”.

Q: What about the “Plasma (μM)” value ([5]; i.p., dose 147.0 μg) of the same molecule?
A: The value was “(2.302 μM)”.

Q: And the “Plasma (μM)” value [3]?
A: The value was “(0.734 μM)”.

Q: What about the concentration at 4 months [3] of the same molecule?
A: Its concentration at 4 months is 270 ± 3 ng/mL.

Q: What about the “plasma levels relative to curcumin” value ([3]; same oral doses, our data and data in the literature) of the same molecule?
A: Its value is 7-8 times.

Q: And the “stability in aqueous solution” value [1]?
A: Its value is “stable even at basic pH”.

Q: And the “Brain (μg/10 mg protein)” value (gav, dose 147.0 μg, 4 hr after administration)?
A: The value was 0.027 ± 0.002^a μg/10 mg protein.

Q: What about the “Brain (μg/10 mg protein)” value (i.m., dose 73.5 μg, 4 hr after administration) of the same molecule?
A: The value was 0.223 ± 0.023^c μg/10 mg protein.

Q: What about the “Brain (μg/10 mg protein)” value (i.p., dose 147.0 μg, 4 hr after administration) of the same molecule?
A: The value was 0.076 ± 0.003^b μg/10 mg protein.

Q: What about the concentration at 4 hr (in vivo; 73.5 μg) of the same molecule?
A: The concentration at 4 hr was 971 ± 92 ng/mL.

Q: And the concentration at 4 hr (in vivo; ip, 147 μg)?
A: The concentration at 4 hr was 847 ± 19 ng/mL.
